# Results published in patent US10344025B2, “GLS1 inhibitors for treating disease” (Board of Regents, The University of Texas System, priority 2014, dated 2019).
# Biological target: purified recombinant human GAC (GLS1) (Homo sapiens (Human), UniProt O94925)
# Test: GLS1 Enzymatic Activity Assay (dual-coupled enzymatic assay, resorufin/Amplex UltraRed readout);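 note: glutamate from GAC coupled via glutamate oxidase and peroxidase to resorufin, read as fluorescence (ex 530, em 590 nm) kinetically or at 20 min, four-parameter logistic IC50 fit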
# Assay type: biochemical
# Chain of purified recombinant human GAC (GLS1) (O94925 other isoform, or with tags, fused parts or gaps): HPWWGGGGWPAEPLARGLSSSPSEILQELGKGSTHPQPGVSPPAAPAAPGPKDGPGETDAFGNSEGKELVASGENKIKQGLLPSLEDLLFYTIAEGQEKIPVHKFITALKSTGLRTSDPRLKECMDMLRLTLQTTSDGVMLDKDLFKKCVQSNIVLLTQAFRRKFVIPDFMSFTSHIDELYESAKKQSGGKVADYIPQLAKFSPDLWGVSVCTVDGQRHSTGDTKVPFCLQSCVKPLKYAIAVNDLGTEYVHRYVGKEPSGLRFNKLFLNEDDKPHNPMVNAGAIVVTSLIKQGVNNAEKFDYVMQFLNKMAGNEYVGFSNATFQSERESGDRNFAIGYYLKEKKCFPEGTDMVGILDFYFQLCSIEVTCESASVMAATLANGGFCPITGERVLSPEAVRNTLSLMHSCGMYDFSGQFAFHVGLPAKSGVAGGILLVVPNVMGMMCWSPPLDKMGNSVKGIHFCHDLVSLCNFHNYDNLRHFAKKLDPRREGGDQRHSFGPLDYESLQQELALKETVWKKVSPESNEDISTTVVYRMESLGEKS
structure (smiles),measurement,value
"O=C(CC1CC1)Nc1cn(CCCCn2cc(C(=O)NCC3CCCCC3)nn2)nn1 [Example 281, N-(cyclohexylmethyl)-1-{4-[4-(2-cyclopropylacetamido)-1H-1,2,3-triazol-1-yl]butyl}-1H-1,2,3-triazole-4-carboxamide]",IC50,0.5 to 5 µM
"O=C(CN1CC(F)C1)Nc1cn(CCCCn2cc(C(=O)NCc3ccccn3)nn2)nn1 [Example 324, 1-(4-{4-[2-(3-fluoroazetidin-1-yl)acetamido]-1H-1,2,3-triazol-1-yl}butyl)-N-(pyridin-2-ylmethyl)-1H-1,2,3-triazole-4-carboxamide]",IC50,0.5 to 5 µM
"O=C(Cc1cccc(OC(F)(F)F)c1)Nc1cn(CCCCn2cc(C(=O)NCc3cc(OC(F)(F)F)ccc3F)nn2)nn1 [Example 333, N-{[2-fluoro-5-(trifluoromethoxy)phenyl]methyl}-1-[4-(4-{2-[3-(trifluoromethoxy)phenyl]acetamido}-1H-1,2,3-triazol-1-yl)butyl]-1H-1,2,3-triazole-4-carboxamide]",IC50,0.5 to 5 µM
"O=C(CC1CC1)Nc1cn(CCCCn2cc(C(=O)NCc3ccccn3)nn2)nn1 [Example 278, 1-{4-[4-(2-cyclopropylacetamido)-1H-1,2,3-triazol-1-yl]butyl}-N-(pyridin-2-ylmethyl)-1H-1,2,3-triazole-4-carboxamide]",IC50,0.5 to 5 µM
"O=C(NCc1ccccn1)c1cn(CCCCc2nnc(C(=O)NCc3ccccn3)s2)nn1 [Example 66, N-(pyridin-2-ylmethyl)-5-(4-{4-[(pyridin-2-ylmethyl)carbamoyl)-1H-1,2,3-triazol-1-yl}butyl)-1,3,4-thiadiazole-2-carboxamide]",IC50,0.5 to 5 µM
"O=C(Cc1cccnc1)Nc1cn(CCCCn2cc(C(=O)NCc3ccccn3)nn2)nn1 [Example 298, N-(pyridin-2-ylmethyl)-1-(4-{4-[2-(pyridin-3-yl)acetamido]-1H-1,2,3-triazol-1-yl}butyl)-1H-1,2,3-triazole-4-carboxamide]",IC50,0.5 to 5 µM
"O=C(CC1CCCCC1)Nc1cn(CCCCn2cc(C(=O)NCC3CCCC3)nn2)nn1 [Example 289, 1-{4-[4-(2-cyclohexylacetamido)-1H-1,2,3-triazol-1-yl]butyl}-N-(cyclopentylmethyl)-1H-1,2,3-triazole-4-carboxamide]",IC50,0.5 to 5 µM
"Cc1ccc(CNC(=O)c2cn(CCCCn3cc(NC(=O)CN4CCC(F)(F)C4)nn3)nn2)cn1 [Example 354, 1-(4-{4-[2-(3,3-difluoropyrrolidin-1-yl)acetamido]-1H-1,2,3-triazol-1-yl}butyl)-N-[(6-methylpyridin-3-yl)methyl]-1H-1,2,3-triazole-4-carboxamide]",IC50,0.5 to 5 µM
"CS(=O)(=O)NCc1cn(CCCCn2cc(C(=O)NCc3cccc(OC(F)(F)F)c3)nn2)nn1 [Example 9, 1-(4-(4-(Methylsulfonamidomethyl)-1H-1,2,3-triazol-1-yl)butyl)-N-(3-(trifluoromethoxy)benzyl)-1H-1,2,3-triazole-4-carboxamide]",IC50,0.5 to 5 µM
"O=C(Cc1cccnc1)Nc1cn(CCCCn2cc(C(=O)NCC3CC3)nn2)nn1 [Example 303, N-(cyclopropylmethyl)-1-(4-{4-[2-(pyridin-3-yl)acetamido]-1H-1,2,3-triazol-1-yl}butyl)-1H-1,2,3-triazole-4-carboxamide]",IC50,0.5 to 5 µM
"O=C(CN1CC(F)(F)C1)Nc1cn(CCCCn2cc(C(=O)NCc3ccccn3)nn2)nn1 [Example 323, 1-(4-{4-[2-(3,3-difluoroazetidin-1-yl)acetamido]-1H-1,2,3-triazol-1-yl}butyl)-N-(pyridin-2-ylmethyl)-1H-1,2,3-triazole-4-carboxamide]",IC50,0.5 to 5 µM
"Cc1ccc(CNC(=O)c2cn(CCCCn3cc(NC(=O)CN4CC(F)(F)C4)nn3)nn2)cn1 [Example 351, 1-(4-{4-[2-(3,3-difluoroazetidin-1-yl)acetamido]-1H-1,2,3-triazol-1-yl}butyl)-N-[(6-methylpyridin-3-yl)methyl]-1H-1,2,3-triazole-4-carboxamide]",IC50,0.5 to 5 µM
"CC(C)CCNCc1cn(CCCCn2cc(C(=O)NCc3cccc(OC(F)(F)F)c3)nn2)nn1 [Example 57, 1-(4-(4-((isopentylamino)methyl)-1H-1,2,3-triazol-1-yl)butyl)-N-(3-(trifluoromethoxy)benzyl)-1H-1,2,3-triazole-4-carboxamide]",IC50,0.5 to 5 µM
"O=C(NCc1ccccn1)c1cn(CCCCn2cc(C(=O)NCc3ccccn3)nn2)nn1 [Example 71, N-(pyridin-2-ylmethyl)-1-(4-{4-[(pyridin-2-ylmethyl)carbamoyl]-1H-1,2,3-triazol-1-yl}butyl)-1H-1,2,3-triazole-4-carboxamide]",IC50,0.5 to 5 µM
"O=C(Cc1ccccn1)Nc1cn(CC(F)CCn2cc(C(=O)NCc3ncccc3F)nn2)nn1 (centres unmarked) [Example 365, 1-(3-fluoro-4-{4-[2-(pyridin-2-yl)acetamido]-1H-1,2,3-triazol-1-yl}butyl)-N-[(3-fluoropyridin-2-yl)methyl]-1H-1,2,3-triazole-4-carboxamide]",IC50,0.5 to 5 µM
"O=C(Cc1cccnc1)Nc1cn(CCCCn2cc(C(=O)NCC3CCCC3)nn2)nn1 [Example 290, N-(cyclopentylmethyl)-1-(4-{4-[2-(pyridin-3-yl)acetamido]-1H-1,2,3-triazol-1-yl}butyl)-1H-1,2,3-triazole-4-carboxamide]",IC50,0.5 to 5 µM
"Cc1ccc(CNC(=O)c2nnc(CCCCn3cc(C(=O)NCc4ccccn4)nn3)s2)cn1 [Example 67, N-[(6-methylpyridin-3-yl)methyl]-5(4-{4-[(pyridin-2-ylmethyl)carbamoyl]-1H-1,2,3-triazol-1-yl}butyl)-1,3,4-thiadiazole-2-carboxamide]",IC50,0.1 to 0.5 µM
"O=C(Cc1ccccn1)Nc1cn(CCCCn2cc(C(=O)NCC3CC3)nn2)nn1 [Example 302, N-(cyclopropylmethyl)-1-(4-{4-[2-(pyridin-2-yl)acetamido]-1H-1,2,3-triazol-1-yl}butyl)-1H-1,2,3-triazole-4-carboxamide]",IC50,0.5 to 5 µM
"CC(C)NC(=O)c1cn(CCCCc2nnc(NC(=O)Cc3cccc(OC(F)(F)F)c3)s2)nn1 [Example 10, N-(propan-2-yl)-1-[4-(5-{2-[3-(trifluoromethoxy)phenyl]acetamido}-1,3,4-thiadiazol-2-yl)butyl]-1H-1,2,3-triazole-4-carboxamide]",IC50,0.1 to 0.5 µM
"CC(C)(C)OC(=O)N1CCC(Cn2cc(CCCCn3cc(C(=O)NCc4cccc(OC(F)(F)F)c4)nn3)nn2)CC1 [Example 8, Tert-butyl 4-((4-(4-(4-(3-(trifluoromethoxy)benzylcarbamoyl)-1H-1,2,3-triazol-1-yl)butyl)-1H-1,2,3-triazol-1-yl)methyl)piperidine-1-carboxylate]",IC50,0.1 to 0.5 µM
"Cc1ccc(CNC(=O)c2cn(CCC(F)Cn3cc(NC(=O)CN4CC(F)C4)nn3)nn2)cn1 (centres unmarked) [Example 374, 1-(3-fluoro-4-{4-[2-(3-fluoroazetidin-1-yl)acetamido]-1H-1,2,3-triazol-1-yl}butyl)-N-[(6-methylpyridin-3-yl)methyl]-1H-1,2,3-triazole-4-carboxamide]",IC50,0.1 to 0.5 µM
"CC(C)NC(=O)c1nnc(CCCCn2cc(C(=O)NCc3ccccc3)nn2)s1 [Example 38, 5-{4-[4-(benzylcarbamoyl)-1H-1,2,3-triazol-1-yl]butyl}-N-(propan-2-yl)-1,3,4-thiadiazole-2-carboxamide]",IC50,0.5 to 5 µM
"O=C(CN1CC(F)C1)Nc1cn(CCCCn2cc(C(=O)NCc3cc(Cl)ccc3F)nn2)nn1 [Example 349, N-[(5-chloro-2-fluorophenyl)methyl]-1-(4-{4-[2-(3-fluoroazetidin-1-yl)acetamido]-1H-1,2,3-triazol-1-yl}butyl)-1H-1,2,3-triazole-4-carboxamide]",IC50,0.1 to 0.5 µM
"Cc1ccc(CNC(=O)c2nnc(CCCCn3cc(C(=O)NCC4CC4)nn3)s2)cn1 [Example 70, 5-(4-{4-[(cyclopropylmethyl)carbamoyl]-1H-1,2,3-triazol-1-yl}butyl)-N-[(6-methylpyridin-3-yl)methyl]-1,3,4-thiadiazole-2-carboxamide]",IC50,0.5 to 5 µM
"Cc1ccc(CNC(=O)c2cn(CCCCn3cc(NC(=O)CN4CC(F)C4)nn3)nn2)cn1 [Example 348, 1-(4-{4-[2-(3-fluoroazetidin-1-yl)acetamido]-1H-1,2,3-triazol-1-yl}butyl)-N-[(6-methylpyridin-3-yl)methyl]-1H-1,2,3-triazole-4-carboxamide]",IC50,0.5 to 5 µM
"O=C(CN1CCC(F)(F)C1)Nc1cn(CCCCn2cc(C(=O)NCc3ncccc3F)nn2)nn1 [Example 357, 1-(4-{4-[2-(3,3-difluoropyrrolidin-1-yl)acetamido]-1H-1,2,3-triazol-1-yl}butyl)-N-[(3-fluoropyridin-2-yl)methyl]-1H-1,2,3-triazole-4-carboxamide]",IC50,0.5 to 5 µM
"O=C(CN1CCC(F)(F)CC1)Nc1cn(CCCCn2cc(C(=O)NCc3ccccn3)nn2)nn1 [Example 326, 1-(4-{4-[2-(4,4-difluoropiperidin-1-yl)acetamido]-1H-1,2,3-triazol-1-yl}butyl)-N-(pyridin-2-ylmethyl)-1H-1,2,3-triazole-4-carboxamide]",IC50,0.5 to 5 µM
"O=C(CC1CC1)Nc1cn(CCCCn2cc(C(=O)NCC3CCCC3)nn2)nn1 [Example 287, N-(cyclopentylmethyl)-1-{4-[4-(2-cyclopropylacetamido)-1H-1,2,3-triazol-1-yl]butyl}-1H-1,2,3-triazole-4-carboxamide]",IC50,0.5 to 5 µM
"O=C(Cc1ccccn1)Nc1cn(CCCCn2cc(C(=O)NCc3ccccn3)nn2)nn1 [Example 297, 1-[4-[4-[[2-(2-pyridyl)acetyl]amino]triazol-1-yl]butyl]-N-(2-pyridylmethyl)triazole-4-carboxamide]",IC50,0.5 to 5 µM
"O=C(Cc1ccccc1)Nc1nnc(CCCCn2cc(C(=O)NCCN3CCC(O)CC3)nn2)s1 [Example 14, N-[2-(4-hydroxypiperidin-1-yl)ethyl]-1-{4-[5-(2-phenylacetamido)-1,3,4-thiadiazol-2-yl]butyl}-1H-1,2,3-triazole-4-carboxamide]",IC50,0.5 to 5 µM
CC(C)(C)OC(=O)N1CCC(Cn2cc(CCCCn3cc(C(=O)NCc4cccc(OC(F)(F)F)c4)nn3)nn2)CC1 [Example 53],IC50,0.5 to 5 µM
"CCC(=O)NCc1cn(CCCCn2cc(C(=O)NCc3cccc(OC(F)(F)F)c3)nn2)nn1 [Example 58, 1-(4-(4-(propionamidomethyl)-1H-1,2,3-triazol-1-yl)butyl)-N-(3-(trifluoromethoxy)benzyl)-1H-1,2,3-triazole-4-carboxamide]",IC50,0.5 to 5 µM
